The record followed here is ChEMBL document CHEMBL3525930 (Drug Metab Dispos, 2012).

pEC50, pIC50: −log10 of the molar value. Some results are limits rather than exact numbers.

Data set [1] deals with Hepatocyte. In words: Cytotoxicity against human hepatocytes assessed as cell viability relative to control. It counts as cell-based.
For another data set, the species on record is Homo sapiens. The data set can be described thus: Unbound Cmax in human. The note with it: in vivo. It counts as ADME, organism-based.
The target of data set [2] is Nuclear receptor subfamily 1 group I member 2 (Homo sapiens, UniProt O75469). In words: Activation of human PXR expressed in human LS174T cells. In kind it is ADME, cell-based.
Nuclear receptor subfamily 1 group I member 2, sequence (O75469 whole entry): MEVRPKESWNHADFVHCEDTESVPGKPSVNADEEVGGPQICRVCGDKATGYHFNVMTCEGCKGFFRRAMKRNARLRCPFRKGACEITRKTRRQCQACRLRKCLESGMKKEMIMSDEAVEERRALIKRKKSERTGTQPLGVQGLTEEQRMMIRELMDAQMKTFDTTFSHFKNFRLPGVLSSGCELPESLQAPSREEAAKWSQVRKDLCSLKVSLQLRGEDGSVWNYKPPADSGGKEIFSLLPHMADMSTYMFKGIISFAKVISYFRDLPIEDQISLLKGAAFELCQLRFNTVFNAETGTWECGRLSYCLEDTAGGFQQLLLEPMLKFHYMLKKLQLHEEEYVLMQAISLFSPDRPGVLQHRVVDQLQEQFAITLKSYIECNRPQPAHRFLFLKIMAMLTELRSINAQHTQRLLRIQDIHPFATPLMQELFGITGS
A short description of data set [3]: Chemical stability of the compound in PBS buffer assessed as compound remaining at pH 7.4 after 10 mins. It counts as physicochemical. The note with it: read-out: Stability.
The nature of data set [4]: Total Cmax in human. It counts as ADME, organism-based. To be noted: in vivo.
Data set [5] can be described thus: Chemical stability of the compound in human hepatocyte culture medium assessed as compound remaining at 1 to 50 uM after 24 hrs. It counts as physicochemical. To be noted: read-out: Stability.
For the next data set, the system named is UGT1A9. The data set can be described thus: Induction of UGT1A9 mRNA expression in human hepatocytes at 10 uM after 72 hrs by RT-PCR analysis relative to vehicle-treated control. In kind it is ADME, cell-based, Hepatocyte. To be noted: read-out: FC.
In data set [6] the target is CYP2C9 (Homo sapiens, UniProt P11712). In words: Induction of CYP2C9 in human hepatocytes at 10 uM after 72 hrs relative to vehicle-treated control. It counts as ADME, cell-based, Hepatocyte. To be noted: read-out: FC.
CYP2C9 (Homo sapiens, UniProt P11712), sequence (P11712 whole entry): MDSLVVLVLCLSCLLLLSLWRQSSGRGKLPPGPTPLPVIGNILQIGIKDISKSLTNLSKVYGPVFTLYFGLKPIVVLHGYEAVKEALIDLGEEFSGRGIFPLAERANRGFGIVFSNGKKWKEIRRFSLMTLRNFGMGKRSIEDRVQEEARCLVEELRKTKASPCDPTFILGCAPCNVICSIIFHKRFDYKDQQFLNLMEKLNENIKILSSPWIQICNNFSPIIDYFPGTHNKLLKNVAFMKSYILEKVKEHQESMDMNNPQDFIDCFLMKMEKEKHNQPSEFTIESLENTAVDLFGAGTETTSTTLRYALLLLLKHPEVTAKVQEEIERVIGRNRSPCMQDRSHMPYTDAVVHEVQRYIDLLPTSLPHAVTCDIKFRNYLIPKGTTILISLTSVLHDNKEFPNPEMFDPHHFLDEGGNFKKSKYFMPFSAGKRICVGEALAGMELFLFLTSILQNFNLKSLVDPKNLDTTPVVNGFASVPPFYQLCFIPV
Data set [7] has as its target T1, Cytochrome P450 3A4 (Homo sapiens, UniProt P08684). In words: Inhibition of CYP3A4 in human liver microsomes incubated for 3 mins prior to NADPH addition measured after 3 mins by LC-MS analysis. In kind it is ADME. (Liver microsomes are a subcellular fraction often used to study metabolism.)
Data set [8] has as its target T2, Cytochrome P450 2B6 (Homo sapiens, UniProt P20813).
T2 sequence (P20813 whole entry): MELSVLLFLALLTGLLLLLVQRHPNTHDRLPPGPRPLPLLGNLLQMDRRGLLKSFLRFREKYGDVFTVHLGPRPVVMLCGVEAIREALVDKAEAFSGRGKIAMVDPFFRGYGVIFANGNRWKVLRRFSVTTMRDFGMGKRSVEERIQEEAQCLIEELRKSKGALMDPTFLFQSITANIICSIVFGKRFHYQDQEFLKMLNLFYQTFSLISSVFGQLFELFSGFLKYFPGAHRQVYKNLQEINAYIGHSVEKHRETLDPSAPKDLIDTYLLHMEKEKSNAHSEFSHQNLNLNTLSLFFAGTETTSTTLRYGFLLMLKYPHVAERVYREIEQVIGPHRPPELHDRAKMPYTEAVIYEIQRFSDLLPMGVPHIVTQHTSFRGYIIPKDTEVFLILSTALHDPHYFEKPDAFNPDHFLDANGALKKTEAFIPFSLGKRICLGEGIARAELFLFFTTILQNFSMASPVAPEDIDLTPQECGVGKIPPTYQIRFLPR
In words: Inhibition of recombinant CYP2B6 (unknown origin) incubated for 3 mins prior to NADPH addition measured after 10 mins by LC-MS analysis. It counts as ADME.

For data set [9], the target named is T1, Cytochrome P450 3A4. In words: (§1) Induction of CYP3A4 in human hepatocytes at 10 uM after 72 hrs relative to vehicle-treated control. To be noted: 72 h, 10 µM.
For data set [10], the target named is CYP3A4 (Homo sapiens, UniProt P08684). Described as §1.
CYP3A4 (Homo sapiens, UniProt P08684), sequence (P08684 whole entry): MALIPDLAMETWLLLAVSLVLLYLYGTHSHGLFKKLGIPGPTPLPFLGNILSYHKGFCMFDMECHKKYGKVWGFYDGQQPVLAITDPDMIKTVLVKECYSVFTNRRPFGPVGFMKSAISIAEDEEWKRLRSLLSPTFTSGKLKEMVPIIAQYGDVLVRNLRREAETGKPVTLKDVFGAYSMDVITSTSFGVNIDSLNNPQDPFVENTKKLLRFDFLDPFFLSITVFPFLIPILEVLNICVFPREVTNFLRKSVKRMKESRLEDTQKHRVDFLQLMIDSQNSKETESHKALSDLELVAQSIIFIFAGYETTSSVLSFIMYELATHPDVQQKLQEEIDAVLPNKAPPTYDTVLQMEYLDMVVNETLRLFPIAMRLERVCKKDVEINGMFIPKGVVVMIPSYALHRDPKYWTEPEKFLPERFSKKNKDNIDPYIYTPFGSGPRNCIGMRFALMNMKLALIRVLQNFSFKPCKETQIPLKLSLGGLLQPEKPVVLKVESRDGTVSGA
Data set [11] concerns CYP3A4. The data set can be described thus: (§2) Induction of CYP3A4 mRNA expression in human hepatocytes at 10 uM after 72 hrs by RT-PCR analysis relative to vehicle-treated control.
For data set [12], the system named is Hepatocyte. Described as §2. To be noted: 72 h, 10 µM.
The subject of data set [13] is CYP2C9. In words: Induction of CYP2C9 mRNA expression in human hepatocytes at 10 uM after 72 hrs by RT-PCR analysis relative to vehicle-treated control. It counts as ADME, cell-based, Hepatocyte. To be noted: read-out: FC.
In a further data set the test system is CYP2C8. In words: Induction of CYP2C8 mRNA expression in human hepatocytes at 10 uM after 72 hrs by RT-PCR analysis relative to vehicle-treated control. It counts as ADME, cell-based, Hepatocyte. The note with it: read-out: FC.
The test system of data set [14] is CYP2B6. In words: (§3) Induction of CYP2B6 mRNA expression in human hepatocytes at 10 uM after 72 hrs by RT-PCR analysis relative to vehicle-treated control. In kind it is ADME, cell-based, Hepatocyte. To be noted: read-out: FC.
In data set [15] the test system is Hepatocyte. The data set is described as §3. In kind it is ADME, cell-based. The note with it: 72 h, 10 µM.
In data set [16] the target is T2, Cytochrome P450 2B6. In words: Inhibition of CYP2B6 in human liver microsomes incubated for 3 mins prior to NADPH addition measured after 10 mins by LC-MS analysis. It counts as ADME.
The subject of the next data set is CYP2A6. In words: Induction of CYP2A6 mRNA expression in human hepatocytes at 10 uM after 72 hrs by RT-PCR analysis relative to vehicle-treated control. In kind it is ADME, cell-based, Hepatocyte. To be noted: read-out: FC.
Data set [17] addresses T1, Cytochrome P450 3A4. In words: Inhibition of recombinant CYP3A4 (unknown origin) incubated for 3 mins prior to NADPH addition measured after 3 mins by LC-MS analysis. In kind it is ADME.
Another data set has as its system CYP3A5. In words: Induction of CYP3A5 mRNA expression in human hepatocytes at 10 uM after 72 hrs by RT-PCR analysis relative to vehicle-treated control.
For the next data set, the system named is UGT2B7. In words: Induction of UGT2B7 mRNA expression in human hepatocytes at 10 uM after 72 hrs by RT-PCR analysis relative to vehicle-treated control. In kind it is ADME, cell-based, Hepatocyte. The note with it: read-out: FC.
The target of data set [18] is T2, Cytochrome P450 2B6. In words: (§4) Induction of CYP2B6 in human hepatocytes at 10 uM after 72 hrs relative to vehicle-treated control. It counts as ADME, cell-based, Hepatocyte. The note with it: 72 h, 10 µM.
Data set [19] deals with CYP2B6 (Homo sapiens, UniProt P20813). The data set is described as §4. It counts as ADME, cell-based, Hepatocyte. To be noted: read-out: FC.
In the next data set the test system is MRP2. In words: Induction of MRP2 mRNA expression in human hepatocytes at 10 uM after 72 hrs by RT-PCR analysis relative to vehicle-treated control. In kind it is cell-based, Hepatocyte. To be noted: read-out: FC.
The next data set deals with CYP2D6. The data set can be described thus: Induction of CYP2D6 mRNA expression in human hepatocytes at 10 uM after 72 hrs by RT-PCR analysis relative to vehicle-treated control. To be noted: read-out: FC. It counts as ADME, cell-based, Hepatocyte.
Another data set deals with MRP1. In words: Induction of MRP1 mRNA expression in human hepatocytes at 10 uM after 72 hrs by RT-PCR analysis relative to vehicle-treated control. It counts as cell-based, Hepatocyte. The note with it: read-out: FC.
The test system of the next data set is CYP1A2. In words: Induction of CYP1A2 mRNA expression in human hepatocytes at 10 uM after 72 hrs by RT-PCR analysis relative to vehicle-treated control. In kind it is ADME, cell-based, Hepatocyte. To be noted: read-out: FC.
Another data set relates to CYP2C19. The data set can be described thus: Induction of CYP2C19 mRNA expression in human hepatocytes at 10 uM after 72 hrs by RT-PCR analysis relative to vehicle-treated control. In kind it is ADME, cell-based, Hepatocyte. The note with it: read-out: FC.
The test system of a further data set is MDR1. In words: Induction of MDR1 mRNA expression in human hepatocytes at 10 uM after 72 hrs by RT-PCR analysis relative to vehicle-treated control. The note with it: read-out: FC. In kind it is ADME, cell-based, Hepatocyte.
A further data set concerns CYP2E1. In words: Induction of CYP2E1 mRNA expression in human hepatocytes at 10 uM after 72 hrs by RT-PCR analysis relative to vehicle-treated control. In kind it is ADME, cell-based, Hepatocyte. To be noted: read-out: FC.

T1 sequence (P08684 whole entry): as above

A word on the pEC50: it is the EC50 on a negative log10 scale, so that one unit is a factor of ten. Lower therefore signals a large EC50. The term Cmax denotes the peak of the concentration-time curve. Take `C[C@@H]1CC[C@H]2[C@@H](C)C(=O)O[C@@H]3O[C@@]4(C)CC[C@@H]1[C@]32OO4` [ARTEMISININ]: in the data set on Hepatocyte [1], the Activity is below 50 µM. Further, in the data set listed under Homo sapiens, the fCmax turned out to be 0.58 µM. Moreover, the pEC50 in data set [2] was 4.52. In addition, the remaining at 10 min in [3] is below 15%. The molecule further gave a Cmax in data set [4] of 1600 nM. Also, the remaining at 24 h, up to 50 µM in data set [5] stood at 38%.
Usually pIC50 stands for −log10 of the IC50, conventionally taken in molar units. Regarding `C[C@H]1[C@@H](O)O[C@@H]2O[C@@]3(C)CC[C@H]4[C@H](C)CC[C@@H]1[C@@]24OO3` [ARTENIMOL], the fold induction at 72 h, 10 µM in the data set on UGT1A9 was found to be 1.4; at CYP2C9 [6], 1.2; on CYP3A4 [10] it was 2.1; with CYP3A4 [11], 3.4; in the data set with CYP2C9 [13], 1; in the data set on CYP2C8, 0.8. The fold induction at 72 h, 10 µM with CYP2B6 [14] was determined as 3.5; in the data set with CYP2A6, 2.2; with CYP3A5 it was 1; with UGT2B7, 0.7; at CYP2B6 [19] it was 2.9; in the data set on MRP2 it was 0.8. Besides, the fold induction at 72 h, 10 µM with CYP2D6 is 0.7; in the data set on MRP1 it was 0.8; in the data set with CYP1A2, 1.1; with CYP2C19, 1.3; with MDR1 it was 1; in the data set on CYP2E1, 0.6. Further, the Activity was 50 µM in the data set on Hepatocyte [1]; 5.2% on Cytochrome P450 3A4 [9]; 7.7% in the data set with Hepatocyte [12]; 13.9% in the data set on Hepatocyte [15]; 11.3% at Cytochrome P450 2B6 [18]. The pIC50 on Cytochrome P450 3A4 [7], on Cytochrome P450 2B6 [8], against Cytochrome P450 2B6 [16] and at Cytochrome P450 3A4 [17] was below 3.90 in each case. Also, the remaining at 24 h, up to 50 µM in data set [5] turned out to be 8%.
Regarding `CO[C@H]1/C=C/O[C@@]2(C)Oc3c(C)c(O)c4c(O)c(c(/C=N/N5CCN(C)CC5)c(O)c4c3C2=O)NC(=O)/C(C)=C\C=C\[C@H](C)[C@H](O)[C@@H](C)[C@@H](O)[C@@H](C)[C@H](OC(C)=O)[C@@H]1C` [RIFAMPIN], in the data set with Hepatocyte [1], the Activity is below 50 µM.
